The values that follow come from patent US10736900B2, “Combinations of an FGFR inhibitor and an IGF1R inhibitor” (ASTEX THERAPEUTICS LTD, priority 2014, dated 2020).

Where only a bound is given, the exact number is not on record here.

One experiment has as its system DMS114 cells. Kind of experiment: Incucyte proliferation (% confluence over time), DMS114 cells, long-term treatment. In kind it is cell-based. Particulars: compound A 1 microM, BMS-754807 300 nM, GSK1838705A 1 microM, each alone.
In experiment [1] the test system is DMS114 cells, a small cell lung cancer cell line with FGFR1 amplification. Kind of experiment: Alamar blue proliferation assay, parental DMS114 cells. In kind it is cell-based. Particulars: Homo sapiens, DMS-114, 96 h, Parental cells (with DMSO control), 4 days. In general terms: Alamar Blue is a resazurin reagent that responds to reducing activity.
In experiment [2] the test system is resistant DMS114 cells. Kind of experiment: Alamar blue proliferation assay, DMS114 cells resistant to compound A. Format: cell-based.
Experiment [3] relates to resistant DMS114 cells. Kind of experiment: Incucyte proliferation, resistant DMS114 cells kept in compound A, long-term treatment. In kind it is cell-based. Particulars: resistant DMS114 cells kept in compound A 1 microM; GSK1838705A 1 microM; over 33 days. From the text: An additional experiment was run wherein the resistant DMS114 cells were exposed to 1 microM of GSK1838705A and the growth/proliferation of the cells was monitored on the Incucyte machine. Cells were kept under this condition for over 33 days, and the medium was replaced twice a week.

For experiment [4], the system named is most sensitive cancer cell lines. Kind of experiment: Cell based proliferation assay (alamar blue assay), cancer cell lines. The settings on record: read-out: IC50 in the most sensitive cancer cell lines.
Method: Cells were seeded in 180 μl of medium at optimized cell densities in black 96 well plates with clear flat bottom. The outer wells were filled with 180 μl of medium. Cells were incubated for 24 hours at 37° C. and 5% CO2.
Compound/medium plates were placed on a shaker for 10 minutes and then 20 μl of compound in medium was added to the cells (10× dilution). Cells were incubated at 37° C. and 5% CO2 for 4 days until alamarBlue® readout.
After 4 days of incubation with compound: Add 40 μl of alamarBlue® ready to use mix to each well. Incubate plates at 37° C. and 5% CO2. Measure plates after 4 or 6 hours of incubation (depends on cell line).

For the compound `C[C@@]1(C(=O)Nc2ccc(F)nc2)CCCN1c1nc(Nc2cc(C3CC3)[nH]n2)c2cccn2n1` [BMS-754807], in the experiment on DMS114 cells, the “proliferation (% confluence over time), single agent” value is “did not impact the proliferation”.

In the case of `CNC(=O)c1c(F)cccc1Nc1nc(Nc2cc3c(cc2OC)CCN3C(=O)CN(C)C)nc2[nH]ccc12` [GSK1838705A], the IC50 was more than 10 µM in experiment [1] and 2 µM in the experiment on resistant DMS114 cells [2] (Homo sapiens, DMS-114, 96 h, Resistant cells, 4 days). In addition, the “inhibition of proliferation of resistant DMS114 cells” value in the experiment with resistant DMS114 cells [2] (resistant DMS114 cells) is recorded as “strongly inhibited the proliferation of the resistant DMS114 cells”. Besides, in the experiment on DMS114 cells, the “proliferation (% confluence over time), single agent” value is given as “did not impact the proliferation”. Also, the “proliferation of resistant cells, long term treatment” value in the experiment on resistant DMS114 cells [3] was “completely blocked and over the long term treatment (>30 days) did not gain ability to grow out”.

As to `COc1cc(OC)c(F)c(N(Cc2ncc[nH]2)c2ccc3ncc(-c4cnn(C)c4)nc3n2)c1` [compound B, N-(2-fluoro-3,5-dimethoxyphenyl)-N-(1H-imidazol-2-ylmethyl)-3-(1-methyl-1H-pyrazol-4-yl)pyrido[2,3-b]pyrazin-6-amine], the IC50 in experiment [4] was less than 0.01 µM.

One may read the IC50 as the point on the concentration scale where inhibition reaches its midpoint.
